“And” between values parts separate entries of the source, which are not always exact repeats. Identical values can stand only once. Numbers after ± are expanded uncertainties.
Experiments:
[1] = xn = mol fraction of the nth substance listed; conditions: 101.3 kPa, Liquid, x2 = 0; for speed of sound: Sing-around technique in a fixed-path interferometer
[2] = 101.3 kPa, Liquid; for speed of sound: Sing-around technique in a fixed-path interferometer

Compound | speed of sound ([1]; 288.15 K) [m/s] | mass density ([1]; 288.15 K) [kg/m3] | speed of sound ([1]; 298.15 K) [m/s] | mass density ([1]; 298.15 K) [kg/m3] | speed of sound ([1]; 323.15 K) [m/s] | mass density ([1]; 323.15 K) [kg/m3] | mass density ([2]; 288.15 K) | speed of sound ([2]; 288.15 K) | mass density ([2]; 298.15 K) | speed of sound ([2]; 298.15 K) | mass density ([2]; 323.15 K) | speed of sound ([2]; 323.15 K) | also measured
Cc1ccccc1 [toluene] + CCOC(C)(C)C | 1347.5 ± 2.2 | 871.457 ± 0.69 | 1303.4 ± 2.2 | 862.173 ± 0.72 | 1196.6 ± 2.2 | 838.706 ± 0.79 |  |  |  |  |  |  | 
c1ccccc1 [benzene] |  |  |  |  |  |  | 884.183 ± 0.65 kg/m3 | 1345.5 ± 2.2 m/s | 873.52 ± 0.68 kg/m3 | 1298.3 ± 2.2 m/s | 846.641 ± 0.77 kg/m3 | 1184.6 ± 2.2 m/s | 
CCO [ethanol] + CCOC(C)(C)C | 1177.3 ± 2.2 | 793.644 ± 0.93 | 1142.4 ± 2.2 | 785.082 ± 0.95 | 1059.3 ± 2.1 | 763.177 ± 1 |  |  |  |  |  |  | 
CCc1ccccc1 [ethylbenzene] |  |  |  |  |  |  | 870.736 ± 0.69 kg/m3 | 1359.1 ± 2.2 m/s | 862.068 ± 0.72 kg/m3 | 1316.2 ± 2.2 m/s | 840.054 ± 0.78 kg/m3 | 1213.6 ± 2.2 m/s | 
CC(C)CC(C)(C)C [2,2,4-trimethylpentane] |  |  |  |  |  |  | 695.948 ± 1.2 kg/m3 | 1124.3 ± 2.2 m/s | 687.749 ± 1.2 kg/m3 | 1082.2 ± 2.2 m/s | 666.832 ± 1.3 kg/m3 | 979.25 ± 2.2 m/s | 
CCO [ethanol] |  |  |  |  |  |  | 793.644 ± 0.93 kg/m3 | 1177.3 ± 2.2 m/s | 785.082 ± 0.95 kg/m3 | 1142.4 ± 2.2 m/s | 763.177 ± 1 kg/m3 | 1059.3 ± 2.1 m/s | 
CC(C)(C)O [2-methylpropan-2-ol] |  |  |  |  |  |  |  |  |  |  | 753.679 ± 1 kg/m3 | 1013 ± 2.2 m/s | mass density ([2]; 303.15 K): 775.028 ± 0.98 kg/m3; speed of sound ([2]; 303.15 K): 1098.2 ± 2.2 m/s; mass density ([2]; 313.15 K): 764.554 ± 1 kg/m3; speed of sound ([2]; 313.15 K): 1055.4 ± 2.2 m/s
c1ccccc1 [benzene] + CCOC(C)(C)C | 1345.5 ± 2.2 | 884.183 ± 0.65 | 1298.3 ± 2.2 | 873.52 ± 0.68 | 1184.6 ± 2.2 | 846.641 ± 0.77 |  |  |  |  |  |  | 
CCc1ccccc1 [ethylbenzene] + CCOC(C)(C)C | 1359.1 ± 2.2 | 870.736 ± 0.69 | 1316.2 ± 2.2 | 862.068 ± 0.72 | 1213.6 ± 2.2 | 840.054 ± 0.78 |  |  |  |  |  |  | 
CC(C)CC(C)(C)C [2,2,4-trimethylpentane] + CCOC(C)(C)C | 1124.3 ± 2.2 | 695.948 ± 1.2 | 1082.2 ± 2.2 | 687.749 ± 1.2 | 979.25 ± 2.2 | 666.832 ± 1.3 |  |  |  |  |  |  | 
CCOC(C)(C)C [2-ethoxy-2-methylpropane] |  |  |  |  |  |  | 745.656 ± 1.1 kg/m3 and 744.955 ± 1.1 kg/m3 | 1078.9 ± 2.2 m/s and 1076.4 ± 2.2 m/s | 735.357 ± 1.1 kg/m3 and 734.806 ± 1.1 kg/m3 | 1033.2 ± 2.2 m/s and 1031 ± 2.2 m/s | 709.007 ± 1.2 kg/m3 and 708.642 ± 1.2 kg/m3 and 708.996 ± 1.2 kg/m3 | 922.48 ± 2.2 m/s and 920.73 ± 2.2 m/s and 922.08 ± 2.2 m/s | mass density ([2]; 303.15 K): 730.186 ± 1.1 kg/m3; speed of sound ([2]; 303.15 K): 1010.2 ± 2.2 m/s; mass density ([2]; 313.15 K): 719.687 ± 1.2 kg/m3; speed of sound ([2]; 313.15 K): 965.87 ± 2.2 m/s
CC(C)(C)O [2-methylpropan-2-ol] + CCOC(C)(C)C |  |  |  |  | 1013 ± 2.2 | 753.679 ± 1 |  |  |  |  |  |  | speed of sound ([1]; 303.15 K): 1098.2 ± 2.2 m/s; mass density ([1]; 303.15 K): 775.028 ± 0.98 kg/m3; speed of sound ([1]; 313.15 K): 1055.4 ± 2.2 m/s; mass density ([1]; 313.15 K): 764.554 ± 1 kg/m3
Cc1ccccc1 [toluene] |  |  |  |  |  |  | 871.457 ± 0.69 kg/m3 | 1347.5 ± 2.2 m/s | 862.173 ± 0.72 kg/m3 | 1303.4 ± 2.2 m/s | 838.706 ± 0.79 kg/m3 | 1196.6 ± 2.2 m/s | 

Source: the NIST ThermoML archive (doi:10.1016/j.jct.2007.05.005)
